Measured values: the NIST ThermoML archive (doi:10.1016/j.jct.2014.07.001)
Numbers after ± are expanded uncertainties.

Assay: xn = mol fraction of the nth substance listed
Details: Drop volume

SMILES: CCCC[n+]1cccc(C)c1.F[B-](F)(F)F [1-butyl-3-methylpyridinium tetrafluoroborate] + CCO
- surface tension liquid-gas (293.15 K, x1 = 0.0279): 22.56 ± 0.26 mN/m
- surface tension liquid-gas (293.15 K, x1 = 0.0486): 22.72 ± 0.26 mN/m
- surface tension liquid-gas (293.15 K, x1 = 0.0988): 23.15 ± 0.27 mN/m
- surface tension liquid-gas (293.15 K, x1 = 0.2016): 24.19 ± 0.28 mN/m
- surface tension liquid-gas (293.15 K, x1 = 0.2987): 25.71 ± 0.3 mN/m
- surface tension liquid-gas (293.15 K, x1 = 0.3978): 27.89 ± 0.32 mN/m
- surface tension liquid-gas (293.15 K, x1 = 0.5001): 30.59 ± 0.35 mN/m
- surface tension liquid-gas (293.15 K, x1 = 0.5865): 33.12 ± 0.38 mN/m
- surface tension liquid-gas (293.15 K, x1 = 0.6878): 36.16 ± 0.42 mN/m
- surface tension liquid-gas (293.15 K, x1 = 0.7851): 39.08 ± 0.45 mN/m
- surface tension liquid-gas (293.15 K, x1 = 0.887): 42.04 ± 0.49 mN/m
- surface tension liquid-gas (293.15 K, x1 = 0.945): 43.68 ± 0.52 mN/m
- surface tension liquid-gas (293.15 K, x1 = 1): 45.21 ± 0.54 mN/m
- surface tension liquid-gas (303.15 K, x1 = 0.0279): 21.82 ± 0.25 mN/m
- surface tension liquid-gas (303.15 K, x1 = 0.0486): 22.04 ± 0.25 mN/m
- surface tension liquid-gas (303.15 K, x1 = 0.0988): 22.56 ± 0.26 mN/m
- surface tension liquid-gas (303.15 K, x1 = 0.2016): 23.8 ± 0.27 mN/m
- surface tension liquid-gas (303.15 K, x1 = 0.2987): 25.43 ± 0.29 mN/m
- surface tension liquid-gas (303.15 K, x1 = 0.3978): 27.63 ± 0.32 mN/m
- surface tension liquid-gas (303.15 K, x1 = 0.5001): 30.28 ± 0.35 mN/m
- surface tension liquid-gas (303.15 K, x1 = 0.5865): 32.73 ± 0.38 mN/m
- surface tension liquid-gas (303.15 K, x1 = 0.6878): 35.68 ± 0.41 mN/m
- surface tension liquid-gas (303.15 K, x1 = 0.7851): 38.51 ± 0.45 mN/m
- surface tension liquid-gas (303.15 K, x1 = 0.887): 41.38 ± 0.49 mN/m
- surface tension liquid-gas (303.15 K, x1 = 0.945): 42.99 ± 0.51 mN/m
- surface tension liquid-gas (303.15 K, x1 = 1): 44.48 ± 0.53 mN/m
- surface tension liquid-gas (313.15 K, x1 = 0.0279): 21.07 ± 0.25 mN/m
- surface tension liquid-gas (313.15 K, x1 = 0.0486): 21.34 ± 0.25 mN/m
- surface tension liquid-gas (313.15 K, x1 = 0.0988): 22.03 ± 0.26 mN/m
- surface tension liquid-gas (313.15 K, x1 = 0.2016): 23.55 ± 0.27 mN/m
- surface tension liquid-gas (313.15 K, x1 = 0.2987): 25.32 ± 0.29 mN/m
- surface tension liquid-gas (313.15 K, x1 = 0.3978): 27.56 ± 0.32 mN/m
- surface tension liquid-gas (313.15 K, x1 = 0.5001): 30.15 ± 0.35 mN/m
- surface tension liquid-gas (313.15 K, x1 = 0.5865): 32.51 ± 0.37 mN/m
- surface tension liquid-gas (313.15 K, x1 = 0.6878): 35.34 ± 0.41 mN/m
- surface tension liquid-gas (313.15 K, x1 = 0.7851): 38.04 ± 0.44 mN/m
- surface tension liquid-gas (313.15 K, x1 = 0.887): 40.81 ± 0.48 mN/m
- surface tension liquid-gas (313.15 K, x1 = 0.945): 42.35 ± 0.5 mN/m
- surface tension liquid-gas (313.15 K, x1 = 1): 43.8 ± 0.52 mN/m
- surface tension liquid-gas (323.15 K, x1 = 0.0279): 20.3 ± 0.24 mN/m
- surface tension liquid-gas (323.15 K, x1 = 0.0486): 20.64 ± 0.24 mN/m
- surface tension liquid-gas (323.15 K, x1 = 0.0988): 21.43 ± 0.25 mN/m
- surface tension liquid-gas (323.15 K, x1 = 0.2016): 23.17 ± 0.27 mN/m
- surface tension liquid-gas (323.15 K, x1 = 0.2987): 25.07 ± 0.29 mN/m
- surface tension liquid-gas (323.15 K, x1 = 0.3978): 27.34 ± 0.31 mN/m
- surface tension liquid-gas (323.15 K, x1 = 0.5001): 29.91 ± 0.34 mN/m
- surface tension liquid-gas (323.15 K, x1 = 0.5865): 32.21 ± 0.37 mN/m
- surface tension liquid-gas (323.15 K, x1 = 0.6878): 34.96 ± 0.41 mN/m
- surface tension liquid-gas (323.15 K, x1 = 0.7851): 37.59 ± 0.44 mN/m
- surface tension liquid-gas (323.15 K, x1 = 0.887): 40.3 ± 0.47 mN/m
- surface tension liquid-gas (323.15 K, x1 = 0.945): 41.81 ± 0.5 mN/m
- surface tension liquid-gas (323.15 K, x1 = 1): 43.24 ± 0.52 mN/m
